This note sets out measurements from ChEMBL document CHEMBL1123004, “Synthesis and antidepressant profiles of phenyl-substituted 2-amino- and 2-[(alkoxycarbonyl)amino]-1,4,5,6-tetrahydropyrimidines” (J Med Chem, 1985).

The term LD50 denotes the dose at which mortality reaches 50%. A word on the ED50: it is the midpoint of the dose-response relation. A low value points to greater potency. As usually defined, the IC50 is the concentration that inhibits the measured activity by half.

Activity calls are given as the source filed them. No cut-off for these calls is given here.

For series [1], the species on record is Mus musculus. The experiment in a line: Antagonism of reserpine-induced hypothermia in mice. Format: functional.
Series [2] is described as follows: Lethal dose against mice after peroral administration; range = 111-182. Format: toxicity, organism-based. The following applies: mouse, in vivo, po.
Series [3] deals with Mus musculus. The experiment in a line: In vivo inhibition of uptake of nor epinephrine in mouse heart; value ranges from 0.01-0.14. Format: functional.
The nature of series [4]: Lethal dose against mice after intraperitoneal administration; range = 25-28. Format: toxicity, organism-based. The following applies: mouse, in vivo, ip.
For series [5], the species on record is Rattus norvegicus. Put plainly: Inhibition of uptake of 5-HT in rat brain slices. Format: functional.
For series [6], the species on record is Rattus norvegicus. Put plainly: Inhibition of uptake of Dopamine in rat brain slices. Format: functional.
Series [7] is filed under the species Rattus norvegicus. Put plainly: Inhibition of uptake of nor epinephrine in rat brain slices. Format: functional.
A short description of series [8]: Lethal dose against mice after peroral administration. Format: toxicity, organism-based. Conditions: mouse, in vivo, po.
Series [9] has as its system Mus musculus. The experiment in a line: Antagonism of reserpine-induced hypothermia in mice; I=Inactive at 10 mg/kg. Format: functional, organism-based. The arrangement: dose 10 mg/kg.
Series [10] is filed under the species Mus musculus. Put plainly: Antagonism of reserpine-induced hypothermia in mice; Short acting. Format: functional.
Series [11] has as its system Mus musculus. Put plainly: In vivo inhibition of uptake of nor epinephrine in mouse heart. Format: functional.
The species entered for series [12] is Mus musculus. Put plainly: animal or person.
The test system of series [13] is Mus musculus. Put plainly: In vivo inhibition of uptake of nor epinephrine in mouse heart; value ranges from 0.01-0.15. Format: functional.
Series [14] is filed under the species Mus musculus. Put plainly: Antagonism of reserpine-induced hypothermia in mice value given as 0.01-0.15. Format: functional.
A short description of series [15]: Lethal dose against mice after intraperitoneal administration; range = 31-53. Format: toxicity, organism-based. The following applies: mouse, in vivo, ip.
Series [16] is described as follows: Lethal dose against mice after peroral administration; RANGE = 50-122. Format: toxicity, organism-based. Conditions: mouse, in vivo, po.
Series [17] relates to Mus musculus. Put plainly: In vivo inhibition of uptake of nor epinephrine in mouse heart; value ranges from 3.1-14.6. Format: functional.
The species entered for series [18] is Mus musculus. Put plainly: Antagonism of reserpine-induced hypothermia in mice; I=inactive at 10 mg/ Kg. Format: functional, organism-based.
For series [19], the species on record is Mus musculus. The experiment in a line: Antagonism of reserpine-induced hypothermia in mice; value given as 0.15-0.6. Format: functional.

On to `COC(=O)NC1=NCC(c2ccc(F)cc2)CN1` (stereo unspecified), for which, in the series listed under Mus musculus [1], the Min oral dose turned out to be 0.04 mg/kg. Still for that read-out and setting: to `COC(=O)NC1=NCC(c2ccc(C(C)C)cc2)CN1` (stereo unspecified) belongs 1 mg/kg.

For `COC(=O)NC1=NCC(c2ccccc2)CN1` (stereo unspecified), the values for the LD50 in series [2] and in [4] were 142 mg/kg and 27 mg/kg, respectively. For the same compound, the ED50 with Mus musculus [3] was 0.038 mg/kg. The same compound had a Min oral dose in the series listed under Mus musculus [1] of 0.0006 mg/kg. For the same compound, the IC50 in the series filed under Rattus norvegicus [5] came out at 160 µM; in the series listed under Rattus norvegicus [6], 24 µM; in the series listed under Rattus norvegicus [7], 4.9 µM. Turning to `CN1CC(c2ccccc2)CN(C)C1=N` (stereo unspecified), the Min oral dose in the series filed under Mus musculus [1] was 10 mg/kg.

In the series filed under Mus musculus [1], `CNC1=NCC(c2ccccc2)CN1C` (stereo unspecified) yielded a Min oral dose of 10 mg/kg. In the series listed under Mus musculus [1], `COC(=O)NC1=NC(c2ccc(OC)cc2)CCN1` (stereo unspecified) gave a Min oral dose of 10 mg/kg. In the case of `NC1=NC(c2ccccc2)CCN1` (stereo unspecified), the Min oral dose in the series filed under Mus musculus [1] came to 10 mg/kg. `CCOC(=O)NC1=NCC(c2ccccc2)CN1` (stereo unspecified) registered a Min oral dose in the series listed under Mus musculus [1] of 0.04 mg/kg. Further, the LD50 in series [8] is over 1000 mg/kg. `COC(=O)NC1=NCC(c2ccc(Cl)cc2Cl)CN1` (stereo unspecified): the Min oral dose in the series filed under Mus musculus [1] was 10 mg/kg.

On to `NC1=NCC(c2cccc(Br)c2)CN1` (stereo unspecified), for which the Min oral dose in the series listed under Mus musculus [1] came out at 10 mg/kg. For `COC(=O)NC1=NC(c2ccc(C)cc2)CCN1` (stereo unspecified), the Min oral dose result with Mus musculus [9] is “inactive”.

In the series filed under Mus musculus [1], `CC(C)OC(=O)NC1=NCC(c2ccccc2)CN1` (stereo unspecified) returned a Min oral dose of 0.04 mg/kg. In series [8], this compound yielded an LD50 of over 1000 mg/kg. Regarding `COC(=O)NC1=NC(c2ccccc2)CCN1` (stereo unspecified), in the series filed under Mus musculus [10], the Min oral dose turned out to be 2.5 mg/kg. The compound `CN(C)CCC=C1c2ccccc2CCc2ccccc21` [AMITRIPTYLINE] yielded an ED50 with Mus musculus [11] of 4.4 mg/kg. For the same compound, the Min oral dose in the series filed under Mus musculus [1] amounted to 0.15 mg/kg. Moreover, the values for the IC50 in the series filed under Rattus norvegicus [5], in the series filed under Rattus norvegicus [6] and in the series filed under Rattus norvegicus [7] were 12 µM, 12 µM and 2.5 µM, respectively.

As for `CNCCCN1c2ccccc2CCc2ccccc21` [DESIPRAMINE], the IC50 in the series listed under Rattus norvegicus [5] and in the series listed under Rattus norvegicus [6] was 12 µM throughout. The 50% effect level in the series listed under Mus musculus [12] (ED50) was put at a dose of 1.4 mg/kg. In the series filed under Mus musculus [1], `COC(=O)NC1=NC(c2ccc(F)cc2)CCN1` (stereo unspecified) yielded a Min oral dose of 1 mg/kg. The compound `NC1=NCC(c2ccccc2)CN1` (stereo unspecified) yielded an ED50 in the series with Mus musculus [13] of 0.038 mg/kg. Further, in the series listed under Mus musculus [14], the Min oral dose turned out to be 0.15 mg/kg. Besides, the LD50 in series [15] was 42 mg/kg; in [16], 78 mg/kg. The IC50 in the series listed under Rattus norvegicus [5] is 1.6 µM; in the series filed under Rattus norvegicus [6], 0.03 µM; in the series filed under Rattus norvegicus [7], 0.01 µM. In the series listed under Mus musculus [1], `COC(=O)NC1=NC(c2ccccc2C(F)(F)F)CCN1` (stereo unspecified) showed a Min oral dose of 10 mg/kg. The compound `CN(C)CCCN1c2ccccc2CCc2ccccc21` [IMIPRAMINE] displayed an ED50 in the series with Mus musculus [17] of 6.7 mg/kg. In the series listed under Mus musculus [1], this compound came in with a Min oral dose of 0.15 mg/kg. The IC50 in the series listed under Rattus norvegicus [5] was determined as 16 µM; in the series filed under Rattus norvegicus [6] it was 12 µM; in the series listed under Rattus norvegicus [7], 4.6 µM. Regarding `COC(=O)NC1=NCC(c2ccccc2Cl)CN1` (stereo unspecified), the Min oral dose in the series listed under Mus musculus [1] amounted to 10 mg/kg.

Take `CCCOC(=O)NC1=NC(c2ccccc2)CCN1` (stereo unspecified): the Min oral dose result in the series filed under Mus musculus [18] was “inactive”.

With `COC(=O)NC1=NCC(c2c(Cl)cccc2Cl)CN1` (stereo unspecified), the Min oral dose in the series filed under Mus musculus [19] turned out to be 0.6 mg/kg. Still for that read-out and setting: the same measure for `COC(=O)NC1=NCC(c2ccccc2)CN1C` (stereo unspecified): 0.15 mg/kg.

`COC(=O)NC1=NC(c2ccccc2)CCN1C` (stereo unspecified) yielded a Min oral dose in the series filed under Mus musculus [1] of 10 mg/kg. As to `CNC1=NCC(c2ccccc2)CN1` (stereo unspecified), the Min oral dose in the series listed under Mus musculus [1] stood at 1 mg/kg.

In the series listed under Mus musculus [1], `COC(=O)NC1=NCC(c2cccc(Br)c2)CN1` (stereo unspecified) registered a Min oral dose of 1 mg/kg.

Consider `COC(=O)N=C1N(C)CC(c2ccccc2)CN1C` (stereo unspecified), for which the Min oral dose in the series listed under Mus musculus [1] turned out to be 10 mg/kg.
